# Measured values from patent US10894784B2, “Heteroarylbenzimidazole compounds” (BAYER PHARMA AKTIENGESELLSCHAFT, priority 2015, dated 2021).
# Molecular target: TBK1 (Homo sapiens (Human), UniProt Q9UHD2)
# Test: TBK1 low ATP kinase assay (in vitro assay 1)
# Type: biochemical
# Settings: in vitro assay 1, read-out: TBK1 low ATP kinase assay IC50
# Sequence of TBK1 (Q9UHD2 whole entry): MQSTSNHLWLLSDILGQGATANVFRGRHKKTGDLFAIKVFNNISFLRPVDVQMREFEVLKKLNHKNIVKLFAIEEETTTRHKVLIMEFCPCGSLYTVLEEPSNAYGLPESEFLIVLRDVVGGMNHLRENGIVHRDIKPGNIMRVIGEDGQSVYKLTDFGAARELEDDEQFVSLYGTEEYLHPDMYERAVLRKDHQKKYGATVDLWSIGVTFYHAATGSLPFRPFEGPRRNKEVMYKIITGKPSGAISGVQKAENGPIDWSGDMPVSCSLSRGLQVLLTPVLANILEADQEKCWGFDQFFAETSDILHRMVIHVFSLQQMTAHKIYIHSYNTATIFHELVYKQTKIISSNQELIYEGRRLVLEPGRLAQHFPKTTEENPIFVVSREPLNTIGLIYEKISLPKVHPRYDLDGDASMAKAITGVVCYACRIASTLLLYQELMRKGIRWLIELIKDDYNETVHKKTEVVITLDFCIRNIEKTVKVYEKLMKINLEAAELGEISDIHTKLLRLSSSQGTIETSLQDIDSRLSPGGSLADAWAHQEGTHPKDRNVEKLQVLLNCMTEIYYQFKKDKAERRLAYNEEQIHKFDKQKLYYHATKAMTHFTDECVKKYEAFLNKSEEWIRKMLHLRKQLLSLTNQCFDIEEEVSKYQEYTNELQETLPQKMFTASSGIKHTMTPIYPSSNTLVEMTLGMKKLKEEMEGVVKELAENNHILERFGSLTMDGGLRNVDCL
row,IC50 [nM],Compound
1,152,"CN(C)c1ccnc(-c2ccc3nc(Nc4cc(CN5CCN(C(=O)CC(F)(F)F)CC5)ccn4)[nH]c3c2)n1 [Example 181.02, 1-(4-{[2-({6-[4-(dimethylamino)pyrimidin-2-yl]-1H-benzimidazol-2-yl}amino)pyridin-4-yl]methyl}piperazin-1-yl)-3,3,3-trifluoropropan-1-one]"
2,362,"CN(C)c1ccnc(-c2ccc3nc(Nc4cc(CN5CCN(C(=O)C6CC6)CC5)ccn4)[nH]c3c2)n1 [Example 181.03, cyclopropyl(4-{[2-({6-[4-(dimethylamino)pyrimidin-2-yl]-1H-benzimidazol-2-yl}amino)pyridin-4-yl]methyl}piperazin-1-yl)methanone]"
3,275,"CC(C)(C)OC(=O)N1CCN(Cc2ccnc(Nc3nc4ccc(-c5ncnc6c5COC6)cc4[nH]3)c2)CC1 [Example 182.01, tert-butyl 4-[(2-{[6-(5,7-dihydrofuro[3,4-d]pyrimidin-4-yl)-1H-benzimidazol-2-yl]amino}pyridin-4-yl)methyl]piperazine-1-carboxylate]"
4,110,"O=C(CC(F)(F)F)N1CCN(Cc2ccnc(Nc3nc4ccc(-c5ncnc6c5COC6)cc4[nH]3)c2)CC1 [Example 182.02, 1-{4-[(2-{[6-(5,7-dihydrofuro[3,4-d]pyrimidin-4-yl)-1H-benzimidazol-2-yl]amino}pyridin-4-yl)methyl]piperazin-1-yl}-3,3,3-trifluoropropan-1-one]"
5,136,"O=C(C1CC1)N1CCN(Cc2ccnc(Nc3nc4ccc(-c5ncnc6c5COC6)cc4[nH]3)c2)CC1 [Example 182.03, cyclopropyl{4-[(2-{[6-(5,7-dihydrofuro[3,4-d]pyrimidin-4-yl)-1H-benzimidazol-2-yl]amino}pyridin-4-yl)methyl]piperazin-1-yl}methanone]"
6,7280,"Cc1c(-c2ccc3nc(Nc4cc(CN5CCN(C(=O)OC(C)(C)C)CC5)ccn4)[nH]c3c2)ncnc1C(F)(F)F [Example 183.01, tert-butyl 4-{[2-({6-[5-methyl-6-(trifluoromethyl)pyrimidin-4-yl]-1H-benzimidazol-2-yl}amino)pyridin-4-yl]methyl}piperazine-1-carboxylate]"
7,2100,"Cc1c(-c2ccc3nc(Nc4cc(CN5CCN(C(=O)CC(F)(F)F)CC5)ccn4)[nH]c3c2)ncnc1C(F)(F)F [Example 183.02, 3,3,3-trifluoro-1-(4-{[2-({6-[5-methyl-6-(trifluoromethyl)pyrimidin-4-yl]-1H-benzimidazol-2-yl}amino)pyridin-4-yl]methyl}piperazin-1-yl)propan-1-one]"
8,2240,"Cc1c(-c2ccc3nc(Nc4cc(CN5CCN(C(=O)C6CC6)CC5)ccn4)[nH]c3c2)ncnc1C(F)(F)F [Example 183.03, cyclopropyl(4-{[2-({6-[5-methyl-6-(trifluoromethyl)pyrimidin-4-yl]-1H-benzimidazol-2-yl}amino)pyridin-4-yl]methyl}piperazin-1-yl)methanone]"
9,201,"Cc1cncnc1-c1ccc2nc(Nc3cc(CN4CCN(C(=O)CC(F)(F)F)CC4)ccn3)[nH]c2c1 [Example 184.02, 3,3,3-trifluoro-1-{4-[(2-{[6-(5-methylpyrimidin-4-yl)-1H-benzimidazol-2-yl]amino}pyridin-4-yl)methyl]piperazin-1-yl}propan-1-one]"
10,216,"Cc1cncnc1-c1ccc2nc(Nc3cc(CN4CCN(C(=O)C5CC5)CC4)ccn3)[nH]c2c1 [Example 184.03, cyclopropyl{4-[(2-{[6-(5-methylpyrimidin-4-yl)-1H-benzimidazol-2-yl]amino}pyridin-4-yl)methyl]piperazin-1-yl}methanone]"
11,212,"COc1nc(Cl)cc(-c2ccc3nc(Nc4cc(CN5CCN(C(=O)OC(C)(C)C)CC5)ccn4)[nH]c3c2)n1 [Example 185.01, tert-butyl 4-[(2-{[6-(6-chloro-2-methoxypyrimidin-4-yl)-1H-benzimidazol-2-yl]amino}pyridin-4-yl)methyl]piperazine-1-carboxylate]"
12,59.1,"Cc1nc(Cl)cc(-c2ccc3nc(Nc4cc(CN5CCN(C(=O)OC(C)(C)C)CC5)ccn4)[nH]c3c2)n1 [Example 186.01, tert-butyl 4-[(2-{[6-(6-chloro-2-methylpyrimidin-4-yl)-1H-benzimidazol-2-yl]amino}pyridin-4-yl)methyl]piperazine-1-carboxylate]"
13,28.6,"COc1nc(-c2ccc3nc(Nc4cc(CN5CCN(C(=O)CC(F)(F)F)CC5)ccn4)[nH]c3c2)cc(N(C)C)n1 [Example 189.02, 1-(4-{[2-({6-[6-(dimethylamino)-2-methoxypyrimidin-4-yl]-1H-benzimidazol-2-yl}amino)pyridin-4-yl]methyl}piperazin-1-yl)-3,3,3-trifluoropropan-1-one]"
14,868,"Cc1nc(-c2ccc3nc(Nc4cc(CN5CCN(C(=O)CC(F)(F)F)CC5)ccn4)[nH]c3c2)cc(N(C)C)n1 [Example 190.02, 1-(4-{[2-({6-[6-(dimethylamino)-2-methylpyrimidin-4-yl]-1H-benzimidazol-2-yl}amino)pyridin-4-yl]methyl}piperazin-1-yl)-3,3,3-trifluoropropan-1-one]"
15,95.3,"O=C(CC(F)(F)F)N1CCN(Cc2ccnc(Nc3nc4ccc(-c5ncnc(NCC6CCC6)c5F)cc4[nH]3)c2)CC1 [Example 191.02, 1-[4-({2-[(6-{6-[(cyclobutylmethyl)amino]-5-fluoropyrimidin-4-yl}-1H-benzimidazol-2-yl)amino]pyridin-4-yl}methyl)piperazin-1-yl]-3,3,3-trifluoropropan-1-one]"
16,94.8,O=C(C1CC1)N1CCN(Cc2ccnc(Nc3nc4ccc(-c5ncnc(NCC6CCC6)c5F)cc4[nH]3)c2)CC1 [Example 191.03]
17,18.3,"O=C(CC(F)(F)F)N1CCN(Cc2ccnc(Nc3nc4ccc(-c5ncnc(NC6CC6)c5F)cc4[nH]3)c2)CC1 [Example 192.02, 1-(4-{[2-({6-[6-(cyclopropylamino)-5-fluoropyrimidin-4-yl]-1H-benzimidazol-2-yl}amino)pyridin-4-yl]methyl}piperazin-1-yl)-3,3,3-trifluoropropan-1-one]"
18,8.3,"O=C(C1CC1)N1CCN(Cc2ccnc(Nc3nc4ccc(-c5ncnc(NC6CC6)c5F)cc4[nH]3)c2)CC1 [Example 192.03, cyclopropyl(4-{[2-({6-[6-(cyclopropylamino)-5-fluoropyrimidin-4-yl]-1H-benzimidazol-2-yl}amino)pyridin-4-yl]mnethyl}piperazin-1-yl)methanone]"
19,42.1,"CC(C)Nc1ncnc(-c2ccc3nc(Nc4cc(CN5CCN(C(=O)OC(C)(C)C)CC5)ccn4)[nH]c3c2)c1F [Example 193.01, tert-butyl 4-{[2-({6-[5-fluoro-6-(propan-2-ylamino)pyrimidin-4-yl]-1H-benzimidazol-2-yl}amino)pyridin-4-yl]methyl}piperazine-1-carboxylate]"
20,34.6,"CC(C)Nc1ncnc(-c2ccc3nc(Nc4cc(CN5CCN(C(=O)CC(F)(F)F)CC5)ccn4)[nH]c3c2)c1F [Example 193.02, 3,3,3-trifluoro-1-(4-{[2-({6-[5-fluoro-6-(propan-2-ylamino)pyrimidin-4-yl]-1H-benzimidazol-2-yl}amino)pyridin-4-yl]methyl}piperazin-1-yl)propan-1-one]"
